Experimental data published in patent EP3660147A1, “PROCESS FOR SELECTIVE SYNTHESIS OF 4-HYDROXYISOPHORONE AND 4-KETOISOPHORONE BY FUNGAL PEROXYGENASES” (Consejo Superior de Investigaciones Científicas (CSIC), priority 2018, dated 2020).
Several values for one entry are separate records, joined by “and”; a condition that tells them apart may be missing. Equal entries are not always repeated.

Tests used:
[1] = test system: Chaetomium globosum unspecific peroxygenase CglUPO, wild-type, SEQ ID NO 1; assay: Enzyme kinetics of isophorone hydroxylation (GC-MS product quantification); assay type: biochemical; settings: 6.25-6400 µM substrate, 100 nM enzyme, 0.5 mM H2O2, 3 min, mean of three replicates with standard errors
Excerpt: (§1) AaeUPO (isoform II, 46 kDa), the first UPO described in 2004 (R. Ullrich and M. Hofrichter, FEBS Lett. 2005, 579, 6247-6250), is a wild-type (i.e. non-recombinant) peroxygenase purified from cultures of A. aegerita TM-A1, grown in soybean-peptone medium. MroUPO is another wild-type peroxygenase (32 kDa) purified from cultures of M. rotula DSM-25031 (German Collection of Microorganisms and Cell Cultures, Braunschweig). CglUPO (36 kDa) is a third wild-type peroxygenase recently purified from cultures of C. globosum DSM-62110.
Reactions were carried out with 6.25-6400 µM substrate and 100 nM enzyme. They were initiated adding 0.5 mM H2O2 and stopped by vigorous shaking in 5 mM sodium azide. Reaction times in which the reaction velocity was linear were previously selected: 5 min for AaeUPO, 3 min for CglUPO and 1 min for rHinUPO. All reactions were performed in triplicates. Product quantification was carried out by GC-MS using external standard curves, and kinetic parameters - turnover number (kcat), Michaelis constant (Km) and catalytic efficiency (kcat/Km) - were obtained by fitting the data to the Michaelis-Menten equation, or the corresponding variation of this equation when substrate inhibition is occurring, using SigmaPlot (Systat Softwarwe Inc., San Jose, CA, USA). […]

[2] = test system: Humicola insolens unspecific peroxygenase rHinUPO, recombinant protein, SEQ ID NO 2; assay: as above; assay type: biochemical; settings: 6.25-6400 µM substrate, 100 nM enzyme, 0.5 mM H2O2, 1 min, mean of three replicates with standard errors
Excerpt: The rCciUPO (44 kDa) and rHinUPO recombinant enzymes were provided by Novozymes A/S. rCciUPO corresponds to the protein model 7249 from the sequenced C. cinerea genome available at the JGI (http://genome.jgi.doe.gov/Copci1) used in several studies (E. D. Babot, J. C. del Río, L. Kalum, A. T. Martínez and A. Gutiérrez, Biotechnol. Bioeng. 2013, 110, 2332; E. D. Babot, J. C. del Río, M. Cañellas, F. Sancho, F. Lucas, V. Guallar, L. Kalum, H. Lund, G. Gröbe, K. Scheibner, R. Ullrich, M. Hofrichter, A. T. Martínez and A. Gutiérrez, Appl. Environ. Microbiol. 2015, 81, 4130-4142; E. D. Babot, J. C. del Río, L. Kalum, A. T. Martínez and A. Gutiérrez, ChemCatChem 2015, 7, 283-290). The rHinUPO sequence has been more recently reported (Patent US 9908860 B2) and used for oxyfunctionalizations that are not catalyzed by other UPOs. Both UPOs were expressed in Aspergillus oryzae (patent WO/2008/119780).
Reactions were carried out with 6.25-6400 µM substrate and 100 nM enzyme. […] Product quantification was carried out by GC-MS using external standard curves, and kinetic parameters - turnover number (kcat), Michaelis constant (Km) and catalytic efficiency (kcat/Km) - were obtained by fitting the data to the Michaelis-Menten equation, or the corresponding variation of this equation when substrate inhibition is occurring, using SigmaPlot (Systat Softwarwe Inc., San Jose, CA, USA). […]

CYP102A1 variants = settings: isophorone hydroxylation; when decoy molecules were used; range over variants; cited from earlier work
[3] = substrate: CC1=CC(=O)CC(C)(C)C1; assay: Enzyme kinetics of isophorone hydroxylation (GC-MS product quantification); assay type: biochemical, Agrocybe aegerita; settings: other: isophorone hydroxylation; 6.25-6400 µM substrate, 100 nM enzyme, 0.5 mM H2O2, 5 min; mean of three replicates with standard errors
Excerpt: as §1
Reactions were carried out with 6.25-6400 µM substrate and 100 nM enzyme. They were initiated adding 0.5 mM H2O2 and stopped by vigorous shaking in 5 mM sodium azide. Reaction times in which the reaction velocity was linear were previously selected: 5 min for AaeUPO, 3 min for CglUPO and 1 min for rHinUPO. All reactions were performed in triplicates. Product quantification was carried out by GC-MS using external standard curves, and kinetic parameters - turnover number (kcat), Michaelis constant (Km) and catalytic efficiency (kcat/Km) - were obtained by fitting the data to the Michaelis-Menten equation, or the corresponding variation of this equation when substrate inhibition is occurring, using SigmaPlot (Systat Softwarwe Inc., San Jose, CA, USA).
The analyses were performed with a Shimadzu GC-MS QP 2010 Ultra system, using a fused-silica DB-5HT capillary column (30 m × 0.25 mm internal diameter, 0.1 µm film thickness) from J&W Scientific. The oven was heated from 50 °C (1.5 min) to 90 °C (2 min) at 30 °C min^-1, and then from 90 °C to 250 °C (15 min) at 8 °C min^-1. The injection was performed at 250 °C and the transfer line was kept at 300 °C. Compounds were identified by comparing their mass spectra and retention times with those of the available authentic standards and with the NIST library.

Row | Molecule | Km [1] [µM] | kcat [1] | Km [2] [µM] | kcat [2] [s⁻¹] | Km (CYP102A1 variants) [µM] | turnover numbers (CYP102A1 variants) [s⁻¹] | Km [3] [µM] | kcat [3] [s⁻¹] | kcat/Km [3]
1 | CC1=CC(=O)CC(C)(C)C1 [isophorone, 3,5,5-Trimethyl-2-cyclohexen-1-one] | 243 ± 19.8 | 4.4 s⁻¹ and 3.8 ± 0.1 s⁻¹ | 288 ± 39.9 | 23.3 ± 1.4 | 380 to 440 | 2.5 to 5.5 | – | – | –
2 | Agrocybe aegerita unspecific peroxygenase AaeUPO (isoform II), wild-type, SEQ ID NO 3 (Cyclocybe aegerita) (protein, is a wild-type (i.e. non-recombinant) peroxygenase purified from cultures of A. aegerita TM-A1; made in house; host or cells: Agrocybe aegerita TM-A1 cultures (native producer, non-recombinant)) EPGLPPGPLENSSAKLVNDEAHPWKPLRPGDIRGPCPGLNTLASHGYLPRNGVATPVQIINAVQEGLNFDNQAAVFATYAAHLVDGNLITDLLSIGRKTRLTGPDPPPPASVGGLNEHGTFEGDASMTRGDAFFGNNHDFNETLFEQLVDYSNRFGGGKYNLTVAGELRFKRIQDSIATNPNFSFVDFRFFTAYGETTFPANLFVDGRRDDGQLDMDAARSFFQFSRMPDDFFRAPSPRSGTGVEVVIQAHPMQPGRNVGKINSYTVDPTSSDFSTPCLMYEKFVNITVKSLYPNPTVQLRKALNTNLDFFFQGVAAGCTQVFPYGRD | – | – | – | – | – | – | 1381.3 ± 196.7 | 20.1 ± 1.1 | 1.4±0.1 x 10^4 M^-1·s^-1
